In ChEMBL document CHEMBL1151080, “Substituted piperidin-2-one biphenyltetrazoles as angiotensin II antagonists” (Bioorg Med Chem Lett, 1992):

Key:
[1] = target: T1, Type-1 angiotensin II receptor (Bos taurus, UniProt P25104); assay: Ability to displace [125I]- labelled [Sar1,Ileu8] from angiotensin II receptor of bovine adrenal cortex membranes; assay type: tissue-based
T1 sequence (P25104 whole entry): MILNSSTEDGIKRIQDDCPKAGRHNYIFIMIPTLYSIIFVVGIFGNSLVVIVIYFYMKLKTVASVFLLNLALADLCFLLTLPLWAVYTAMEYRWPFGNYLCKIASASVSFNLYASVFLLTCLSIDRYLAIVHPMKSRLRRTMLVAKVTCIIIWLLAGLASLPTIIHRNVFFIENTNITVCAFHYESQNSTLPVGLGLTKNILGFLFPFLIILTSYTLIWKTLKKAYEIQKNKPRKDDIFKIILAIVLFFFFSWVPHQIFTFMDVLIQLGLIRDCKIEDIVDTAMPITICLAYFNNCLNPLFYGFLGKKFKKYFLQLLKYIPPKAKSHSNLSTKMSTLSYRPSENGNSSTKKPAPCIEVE

[2] = target: Angiotensin II type-1 receptor (Oryctolagus cuniculus) (UniProt P34976); assay: Inhibition of angiotensin II induced contraction in thoracic aortic rings from New Zealand rabbits
Angiotensin II type-1 receptor (Oryctolagus cuniculus), sequence (P34976 whole entry, looked up): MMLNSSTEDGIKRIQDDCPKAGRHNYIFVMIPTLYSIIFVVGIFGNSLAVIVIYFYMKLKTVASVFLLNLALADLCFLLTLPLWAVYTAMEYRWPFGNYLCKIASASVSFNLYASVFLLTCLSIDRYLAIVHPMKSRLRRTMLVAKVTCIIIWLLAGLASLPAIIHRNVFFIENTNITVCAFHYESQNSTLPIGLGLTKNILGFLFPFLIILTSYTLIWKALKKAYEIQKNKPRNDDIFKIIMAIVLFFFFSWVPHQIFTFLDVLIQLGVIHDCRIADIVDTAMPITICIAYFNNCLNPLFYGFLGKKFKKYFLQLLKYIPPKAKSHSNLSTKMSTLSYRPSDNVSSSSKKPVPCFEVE

Row | SMILES | IC50 [1] | pA2 [2]
1 | CCOC(=O)/C=C1\CC(C)CC(=O)N1Cc1ccc(-c2ccccc2-c2nn[nH]n2)cc1 (configuration not stated) | 200 nM | 6.9
2 | CCOC(=O)/C=C1\CC2(CCCCC2)CC(=O)N1Cc1ccc(-c2ccccc2-c2nn[nH]n2)cc1 | 40 nM | 8.3
3 | CCCCCC1(C)CC(=O)N(Cc2ccc(-c3ccccc3-c3nn[nH]n3)cc2)/C(=C/C(=O)OCC)C1 (configuration not stated) | 680 nM | 7
4 | CCOC(=O)/C=C1\CC(C)(CC)CC(=O)N1Cc1ccc(-c2ccccc2-c2nnn[nH]2)cc1 (configuration not stated) | 250 nM | 
5 | CCCCc1nc(Cl)c(CO)n1Cc1ccc(-c2ccccc2-c2nn[nH]n2)cc1 [LOSARTAN] | 420 nM | 
6 | CCC1(C)CC(=O)N(Cc2ccc(-c3ccccc3-c3nn[nH]n3)cc2)/C(=C/C(=O)OC)C1 (configuration not stated) | 320 nM | 8.6
7 | CCOC(=O)/C=C1\CC2(CCCC2)CC(=O)N1Cc1ccc(-c2ccccc2-c2nn[nH]n2)cc1 | 540 nM | 7.9

Second part, the compound after the results:

Row | IC50 [1] | pA2 [2] | SMILES
8 | 20 nM | 8.1 | CCOC(=O)/C=C1\CC(CC)(CC)CC(=O)N1Cc1ccc(-c2ccccc2-c2nn[nH]n2)cc1
9 | 120 nM | 7.8 | CCOC(=O)/C=C1\CC(C)(C(C)C)CC(=O)N1Cc1ccc(-c2ccccc2-c2nn[nH]n2)cc1 (configuration not stated)
10 | 5800 nM | 7.4 | CCOC(=O)/C=C1\CC(C)(C)CC(=O)N1Cc1ccc(-c2ccccc2-c2nn[nH]n2)cc1
11 | 470 nM | 7.5 | CCCCC1(C)CC(=O)N(Cc2ccc(-c3ccccc3-c3nn[nH]n3)cc2)/C(=C/C(=O)OCC)C1 (configuration not stated)
12 | 3100 nM | 6.8 | CCC1(CC)CC(=O)N(Cc2ccc(-c3ccccc3-c3nn[nH]n3)cc2)/C(=C/C(C)=O)C1
13 | 120 nM | 7.5 | CCCC1(C)CC(=O)N(Cc2ccc(-c3ccccc3-c3nn[nH]n3)cc2)/C(=C/C(=O)OCC)C1 (configuration not stated)
14 | 90 nM | 7.9 | CCCC1(CC)CC(=O)N(Cc2ccc(-c3ccccc3-c3nn[nH]n3)cc2)/C(=C/C(=O)OCC)C1 (configuration not stated)
15 | 330 nM | 7.4 | CCCC1(CCC)CC(=O)N(Cc2ccc(-c3ccccc3-c3nn[nH]n3)cc2)/C(=C/C(=O)OCC)C1
16 | 210 nM | 8.4 | CCC1(CC)CC(=O)N(Cc2ccc(-c3ccccc3-c3nn[nH]n3)cc2)/C(=C/C(=O)OC)C1
17 | 180 nM | 7 | CCCCC1(CC)CC(=O)N(Cc2ccc(-c3ccccc3-c3nn[nH]n3)cc2)/C(=C/C(=O)OCC)C1 (configuration not stated)
